Assay results: ChEMBL document CHEMBL3885881, “DrugMatrix”

Species on record: Rattus norvegicus
Assay: DrugMatrix - Regimen: Daily Repeat
Assay type: toxicity, organism-based, Sprague-Dawley
Parameters: regimen Daily Repeat, gender Male, age 6-8 weeks
Conditions: in vivo, po, route oral GAVAGE, […]; for ABSOLUTE BASOPHIL / ABSOLUTE EOSINOPHIL / ABSOLUTE LYMPHOCYTE / ABSOLUTE MONOCYTE / ABSOLUTE SEGMENTED NEUTROPHIL / BASOPHIL / EOSINOPHIL / ERYTHROCYTE COUNT / HEMATOCRIT / HEMOGLOBIN / LEUKOCYTE COUNT / LYMPHOCYTE / MEAN CORPUSCULAR HEMOGLOBIN / MEAN CORPUSCULAR HEMOGLOBIN CONCENTRATION / MEAN CORPUSCULAR VOLUME / MONOCYTE / NEUTROPHIL / NUCLEATED RED BLOOD CELLS / PLATELET COUNT: tissue Blood; for ALANINE AMINOTRANSFERASE / ALBUMIN / ALKALINE PHOSPHATASE / ASPARTATE AMINOTRANSFERASE / BLOOD UREA NITROGEN / CARBON DIOXIDE / CHLORIDE / CHOLESTEROL / CREATINE PHOSPHOKINASE / CREATININE / GLUCOSE / LACTATE DEHYDROGENASE / LIPASE / PHOSPHORUS / POTASSIUM / SODIUM / TOTAL BILIRUBIN / TOTAL PROTEIN / URIC ACID: tissue Plasma
[1] = 0 mg/kg, 72 h, dose level Control, time 3 day
[2] = 0 mg/kg, dose level Control, time 7 day
[3] = 400 mg/kg, 72 h, dose level Low, time 3 day

## ClC(Cl)(Cl)Cl [CARBON TETRACHLORIDE]
[1]
  ABSOLUTE BASOPHIL: 0 CELLS/uL
  ABSOLUTE EOSINOPHIL: 47.5 CELLS/uL
  ABSOLUTE LYMPHOCYTE: 9600.67 CELLS/uL
  ABSOLUTE MONOCYTE: 195.5 CELLS/uL
  ABSOLUTE SEGMENTED NEUTROPHIL: 839.67 CELLS/uL
  BASOPHIL: 0%
  EOSINOPHIL: 0.5%
  ERYTHROCYTE COUNT: 5.26 x10E6/uL
  HEMATOCRIT: 34.48%
  HEMOGLOBIN: 12.77 G/DL
  LEUKOCYTE COUNT: 10.68 x10E3/uL
  LYMPHOCYTE: 89.67%
  MEAN CORPUSCULAR HEMOGLOBIN: 24.3 pg
  MEAN CORPUSCULAR HEMOGLOBIN CONCENTRATION: 37.05 G/DL
  MEAN CORPUSCULAR VOLUME: 65.62 fL
  MONOCYTE: 1.83%
  NEUTROPHIL: 8%
  NUCLEATED RED BLOOD CELLS: 0.17 /100WBC
  PLATELET COUNT: 1038.67 x10E3/uL
  ALANINE AMINOTRANSFERASE: 65.17 u/L
  ALBUMIN: 4.2 G/DL
  ALKALINE PHOSPHATASE: 377.5 u/L
  ASPARTATE AMINOTRANSFERASE: 90.5 u/L
  BLOOD UREA NITROGEN: 13.5 mg/dL
  CARBON DIOXIDE: 31.17 mmol/L
  CHLORIDE: 98.33 MEQ/L
  CHOLESTEROL: 66.33 mg/dL
  CREATINE PHOSPHOKINASE: 478.83 u/L
  CREATININE: 0.19 mg/dL
  GLUCOSE: 155.17 mg/dL
  LACTATE DEHYDROGENASE: 107.5 u/L
  LIPASE: 10.33 u/L
  PHOSPHORUS: 9.25 mg/dL
  POTASSIUM: 5.43 MEQ/L
  SODIUM: 142.05 MEQ/L
  TOTAL BILIRUBIN: 0.12 mg/dL
  TOTAL PROTEIN: 5.95 G/DL
  URIC ACID: 0.62 mg/dL
[2]
  ABSOLUTE BASOPHIL: 0 CELLS/uL
  ABSOLUTE EOSINOPHIL: 43.5 CELLS/uL
  ABSOLUTE LYMPHOCYTE: 9369.83 CELLS/uL
  ABSOLUTE MONOCYTE: 196.17 CELLS/uL
  ABSOLUTE SEGMENTED NEUTROPHIL: 723.83 CELLS/uL
  BASOPHIL: 0%
  EOSINOPHIL: 0.5%
  ERYTHROCYTE COUNT: 5.09 x10E6/uL
  HEMATOCRIT: 32.42%
  HEMOGLOBIN: 13.1 G/DL
  LEUKOCYTE COUNT: 10.33 x10E3/uL
  LYMPHOCYTE: 90.83%
  MEAN CORPUSCULAR HEMOGLOBIN: 25.75 pg
  MEAN CORPUSCULAR HEMOGLOBIN CONCENTRATION: 40.43 G/DL
  MEAN CORPUSCULAR VOLUME: 63.62 fL
  MONOCYTE: 1.67%
  NEUTROPHIL: 7%
  NUCLEATED RED BLOOD CELLS: 0 /100WBC
  PLATELET COUNT: 1106.5 x10E3/uL
  ALANINE AMINOTRANSFERASE: 48.67 u/L
  ALBUMIN: 4.13 G/DL
  ALKALINE PHOSPHATASE: 275.17 u/L
  ASPARTATE AMINOTRANSFERASE: 73.17 u/L
  BLOOD UREA NITROGEN: 13.17 mg/dL
  CARBON DIOXIDE: 27.5 mmol/L
  CHLORIDE: 99.67 MEQ/L
  CHOLESTEROL: 60.83 mg/dL
  CREATINE PHOSPHOKINASE: 213 u/L
  CREATININE: 0.2 mg/dL
  GLUCOSE: 166.67 mg/dL
  LACTATE DEHYDROGENASE: 94.5 u/L
  LIPASE: 10.5 u/L
  PHOSPHORUS: 9.98 mg/dL
  POTASSIUM: 5.3 MEQ/L
  SODIUM: 140.77 MEQ/L
  TOTAL BILIRUBIN: 0.15 mg/dL
  TOTAL PROTEIN: 5.88 G/DL
  URIC ACID: 0.82 mg/dL
[3]
  ABSOLUTE BASOPHIL: 0 CELLS/uL
  ABSOLUTE EOSINOPHIL: 68.67 CELLS/uL
  ABSOLUTE LYMPHOCYTE: 9955.17 CELLS/uL
  ABSOLUTE MONOCYTE: 295.83 CELLS/uL
  ABSOLUTE SEGMENTED NEUTROPHIL: 1063.67 CELLS/uL
  BASOPHIL: 0%
  EOSINOPHIL: 0.67%
  ERYTHROCYTE COUNT: 5.78 x10E6/uL
  HEMATOCRIT: 36.52%
  HEMOGLOBIN: 13.38 G/DL
  LEUKOCYTE COUNT: 11.38 x10E3/uL
  LYMPHOCYTE: 87.5%
  MEAN CORPUSCULAR HEMOGLOBIN: 23.22 pg
  MEAN CORPUSCULAR HEMOGLOBIN CONCENTRATION: 36.7 G/DL
  MEAN CORPUSCULAR VOLUME: 63.22 fL
  MONOCYTE: 2.67%
  NEUTROPHIL: 9.17%
  NUCLEATED RED BLOOD CELLS: 0 /100WBC
  PLATELET COUNT: 836.5 x10E3/uL
  ALANINE AMINOTRANSFERASE: 112.17 u/L
  ALBUMIN: 3.92 G/DL
  ALKALINE PHOSPHATASE: 474.67 u/L
  ASPARTATE AMINOTRANSFERASE: 154.33 u/L
  BLOOD UREA NITROGEN: 15.5 mg/dL
  CARBON DIOXIDE: 31.67 mmol/L
  CHLORIDE: 101 MEQ/L
  CHOLESTEROL: 43.17 mg/dL
  CREATINE PHOSPHOKINASE: 313.5 u/L
  CREATININE: 0.21 mg/dL
  GLUCOSE: 143.17 mg/dL
  LACTATE DEHYDROGENASE: 105 u/L
  LIPASE: 12 u/L
  PHOSPHORUS: 9.75 mg/dL
  POTASSIUM: 5.51 MEQ/L
  SODIUM: 145.37 MEQ/L
  TOTAL BILIRUBIN: 0.1 mg/dL
  TOTAL PROTEIN: 5.6 G/DL
  URIC ACID: 0.52 mg/dL
